Source: the supplement of paper PMC5908809

Experiments:
Experiment in all cases: relative IC50 (inflection point of fitted viability curve, relative to fitted max inhibition); higher = less sensitive
Details in all cases: 72 h
DERL-7 (IL-2 2.5 ng/mL) = system: DERL-7 (IL-2 2.5 ng/mL)
Procedure: (§1)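 Drug sensitivity and resistance testing: 5 concentrations over a 10,000-fold range, 72 h at 37 °C, viability by CellTiter-Glo normalised to DMSO and benzethonium chloride controls. IC50 is the inflection point of a logistic fit (min fixed at 0, max fitted), so it is relative to the fitted maximal inhibition. Kept only where fitted max inhibition is at least 50%.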

IMC-1 (IL-2 20 ng/mL) = system: IMC-1 (IL-2 20 ng/mL)
Procedure: as §1

KAI3 (IL-2 2.5 ng/mL) = system: KAI3 (IL-2 2.5 ng/mL)
Procedure: as §1

KHYG-1 (IL-2 2.5 ng/mL) = system: KHYG-1 (IL-2 2.5 ng/mL)
Procedure: as §1

NK-92 (IL-2 2.5 ng/mL) = system: NK-92 (IL-2 2.5 ng/mL)
Procedure: as §1

NK-YS (IL-2 2.5 ng/mL) = system: NK-YS (IL-2 2.5 ng/mL)
Procedure: as §1

NKL (IL-2 2.5 ng/mL) = system: NKL (IL-2 2.5 ng/mL)
Procedure: as §1

SNK-6 (IL-2 2.5 ng/mL) = system: SNK-6 (IL-2 2.5 ng/mL)
Procedure: as §1

YT (IL-2 2.5 ng/mL) = system: YT (IL-2 2.5 ng/mL)
Procedure: as §1

[1] = system: normal primary NK cells, pool 1 (3 donors) (IL-2 2.5 ng/mL)
Procedure: as §1

[2] = system: normal primary NK cells, pool 1 (3 donors), resting (IL-2 0 ng/mL)
Procedure: as §1

[3] = system: normal primary NK cells, pool 2 (3 donors) (IL-2 2.5 ng/mL)
Procedure: as §1

[4] = system: normal primary NK cells, pool 3 (3 donors) (IL-2 2.5 ng/mL)
Procedure: as §1

Compound | relative IC50 (DERL-7 (IL-2 2.5 ng/mL)) [nM] | relative IC50 (IMC-1 (IL-2 20 ng/mL)) [nM] | relative IC50 (KAI3 (IL-2 2.5 ng/mL)) [nM] | relative IC50 (KHYG-1 (IL-2 2.5 ng/mL)) [nM] | relative IC50 (NK-92 (IL-2 2.5 ng/mL)) [nM] | relative IC50 (NK-YS (IL-2 2.5 ng/mL)) [nM] | relative IC50 (NKL (IL-2 2.5 ng/mL)) [nM] | relative IC50 (SNK-6 (IL-2 2.5 ng/mL)) [nM] | relative IC50 (YT (IL-2 2.5 ng/mL)) [nM] | relative IC50 [1] [nM] | relative IC50 [2] [nM] | relative IC50 [3] [nM] | relative IC50 [4] [nM]
CNC(=O)c1nn(C)c2c1C(C)(C)Cc1cnc(Nc3ccc(N4CCN(C)CC4)cc3)nc1-2 [Milciclib] | 634 | 3420 | 1230 | 278 | 1190 | 1170 | 1220 | 1780 | 1680 | 1100 | 449 | 775 | 1470
CN[C@@H]1C[C@H]2O[C@@](C)([C@@H]1OC)n1c3ccccc3c3c4c(c5c6ccccc6n2c5c31)C(=O)N[C@H]4O [UCN-01] | 27 | 375 | 21.3 | 24.9 | 39.3 | 51.1 | 53.3 | 15.3 | 184 | 97.1 | 204 | 75.8 | 126
COc1cc(N2CCN(C)CC2)ccc1Nc1nccc(-c2cn(C)c3cnccc23)n1 [AZ191] | 1650 | 2910 | 2510 | 1890 | 3940 | 2440 | 2340 | 3570 |  | 3430 | 4320 | 3700 | 3870
CCC/C=C/C=C/C(=O)O[C@H]1/C(=C/C(=O)OC)C[C@H]2C[C@H]([C@@H](C)O)OC(=O)C[C@H](O)C[C@@H]3C[C@H](OC(C)=O)C(C)(C)[C@](O)(C[C@@H]4C/C(=C/C(=O)OC)C[C@H](/C=C/C(C)(C)[C@]1(O)O2)O4)O3 [Bryostatin 1] |  | 0.28 |  | 0.13 | 0.23 |  | > 100 | 1 |  | > 100 |  | > 100 | > 100
CN(C)C[C@@H]1CCn2cc(c3ccccc32)C2=C(C(=O)NC2=O)c2cn(c3ccccc23)CCO1 [Ruboxistaurin] | 1140 | 4180 | 1430 | 1290 | 2950 | 1540 | 1240 | 2810 | 2730 | 1430 | 1070 | 2110 | 2000
Cn1cncc1[C@@](N)(c1ccc(Cl)cc1)c1ccc2c(c1)c(-c1cccc(Cl)c1)cc(=O)n2C [Tipifarnib] | 91.8 | 1880 | 94.8 | 35.2 | 270 | 61.6 | 401 | 74.1 | 349 | 1110 | 264 | 1580 | 723
O=[N+]([O-])c1ccc2c(c1)S(=O)(=O)C=C2 [Stattic] | 1220 | 18900 | 1100 | 1700 | 1800 | 6720 | 4710 | 2020 | 1770 | 1110 | 1170 | 1660 | 1850
Cc1nc(N)sc1-c1ccnc(Nc2ccc(N3CCOCC3)cc2)n1 [CYC-116] | 538 | 913 | 1100 | 599 | 889 | 238 | 989 | 171 | 1400 | 1810 |  | 1600 | 2800
CC(=O)[C@]1(O)Cc2c(O)c3c(c(O)c2[C@@H](O[C@H]2C[C@H](N)[C@H](O)[C@H](C)O2)C1)C(=O)c1ccccc1C3=O [Idarubicin] | 6.26 | 7.71 | 3.54 | 6.52 | 5.78 | 6.58 | 1.74 | 5.03 | 34 | 17.3 | 3.38 | 9.51 | 10.9
S=C(NCc1ccc2c(c1)OCO2)N1CCN(c2ncnc3c2oc2ccccc23)CC1 [Amuvatinib] | 521 |  | 1480 | 1330 | 911 | 2060 | 815 | 388 |  | 1570 | 1380 | 1930 | 1760
Cc1ncc(-c2ccnc(Nc3ccc(S(C)(=O)=O)cc3)n2)n1C(C)C [AZD-5438] | 1370 | 1220 | 1150 | 1080 | 3010 | 848 | 2740 | 3300 | 1570 | 2220 | 5260 | 1930 | 1800
Cc1cc(Nc2cc(N3CCN(C)CC3)nc(/C=C/c3ccccc3)n2)n[nH]1 [ENMD-2076] | 497 | 573 | 256 | 482 | 901 | 293 | 503 | 541 | 1360 | 1500 | 1710 | 1290 | 1970
COc1cc2c(cc1-c1c(C)noc1C)ncc1[nH]c(=O)n([C@H](C)c3ccccn3)c12 [I-BET151] | 306 | 2040 | 848 | 606 |  | 707 | 375 | 149 | 966 | 1040 | 1010 | 1240 | 1850
COc1ccc(-c2ccc3ncc4c(c3c2)n(-c2ccc(N3CCNCC3)c(C(F)(F)F)c2)c(=O)n4C)cn1 [NVP-BGT226] | 8.54 | 90.7 | 45.8 | 48.4 | 29.8 | 25.3 | 47.8 | 53.8 | 45.6 | 105 | 64.4 | 128 | 167
C[C@@H](Oc1ccc2[nH]nc(/C=C/c3cnn(CCO)c3)c2c1)c1c(Cl)cncc1Cl | 91.8 | 165 | 20.9 | 16.1 | 50.1 | 59.2 | 11.9 | 15.7 | 224 | 47.9 |  | 15.6 | 30.1
O=C(O)c1ccc2c(c1)nc(Nc1cccc(Cl)c1)c1ccncc12 [Silmitasertib] | 2270 |  | 1780 | 2010 | 3900 | 2170 | 1850 | 3730 | 1650 | 1690 | 3780 | 2230 | 2040
CNNCc1ccc(C(=O)NC(C)C)cc1 [Procarbazine] | > 10000 | > 10000 | > 10000 | > 10000 | > 10000 | > 10000 | > 10000 |  | > 10000 | > 10000 |  | > 10000 | > 10000
